Literature values in patent US20180206486A1, “Stable Agricultural Compositions” (Ceradis B.V., priority 2015, published 2018).

Key:
[1] = test system: downy mildew (Plasmopara viticola); conditions: in vivo
rodents = conditions: after oral and dermal administration and inhalatory exposure

Potassium phosphite
effectiveness as fungicide against downy mildew [1]: effective
toxicity in rodents (rodents): low toxicity
